The values below come from patent US11278555B2, “Combinational therapies for treatment of cancer comprising a bacteriochlorophyll derivative” (Yeda Research and Development Co. Ltd., priority 2016, dated 2022).

In the assay the test system is 4T1-luc tumors at the mammary pad. Description: WST11 VTP combined with CTX or Gemzar in mice bearing 4T1-luc tumors in the mammary pad (Scheme 5). Type of assay: in vivo, Balb/C mice. The note with it: VTP alone, 9 mg/kg WST11, 200 mW/cm^2 for 15 min. The procedure:
• (i) Bacteriochlorophyll Derivatives—The Bchl derivatives and RGD-conjugates thereof were provided by Steba Biotech (Rehovot, Israel). […] Concentration was verified by spectrophotometric measurement. STL-7012 was provided as dipotassium salt. Working solution was prepared by dissolving STL-7012 K^+ salt in 5% mannitol solution (1 mg/ml). […] WST11 was supplied as a powder and kept in the dark at −20° C. Stock was prepared by dissolving WST11 in DDW containing 5% glucose and 0.67% mannitol, aliquoted and lyophilized. Working solution was reconstituted with DDW and the concentration of solution was confirmed spectrophotometrically. Alternatively, Clinical WST11 (batch: P00611, and 10-130611) was supplied as lyophilized formulation. Material was dissolved in 5% dextrose, aliquoted and stored at −20° C. […] Whole body imaging of luciferase-transfected tumors and metastases were recorded five minutes following 75 mg Kg^−1 intraperitoneal (i.p.) injection of D-luciferin with respective filter sets. • (vi) PDT treatment protocol: 4T1-Luc cells were grafted in the mammary pad of Balb/c mice. […]

With `CCC1c2cc3[n-]c(c(CC(=O)OC)c4nc(cc5[n-]c(cc(n2)C1C)c(C(C)=O)c5C)C(C)C4CCC(=O)[O-])c(C(=O)NCCS(=O)(=O)[O-])c3C.[K+].[K+].[Pd+2]` (stereo not shown) [WST11, Palladium 3^1-oxo-15-methoxycarbonylmethyl-rhodobacteriochlorin 13^1-(2-sulfoethyl) amide dipotassium salt], the survival result is “very limited survival”.
